In ChEMBL document CHEMBL5360657, “Discovery of the TLR7/8 Antagonist MHV370 for Treatment of Systemic Autoimmune Diseases” (ACS Med Chem Lett, 2023):

Legend:
[1] = Clearance in mouse at 3 mg/kg, iv; assay type: ADME, organism-based; details: in vivo
[2] = MRT in mouse at 20 mg/kg, po; assay type: ADME, organism-based; details: in vivo
[3] = Cmax in mouse at 20 mg/kg, po; assay type: ADME, organism-based; set-up: dose 20 mg/kg, route po; details: in vivo
[4] = AUC in mouse at 3 mg/kg, iv; assay type: ADME, organism-based; set-up: dose 3 mg/kg, route iv; details: in vivo
[5] = target: Cytochrome P450 2D6 (Homo sapiens, UniProt P10635); assay: Inhibition of CYP2D6 (unknown origin); assay type: ADME
Cytochrome P450 2D6, sequence (P10635 whole entry): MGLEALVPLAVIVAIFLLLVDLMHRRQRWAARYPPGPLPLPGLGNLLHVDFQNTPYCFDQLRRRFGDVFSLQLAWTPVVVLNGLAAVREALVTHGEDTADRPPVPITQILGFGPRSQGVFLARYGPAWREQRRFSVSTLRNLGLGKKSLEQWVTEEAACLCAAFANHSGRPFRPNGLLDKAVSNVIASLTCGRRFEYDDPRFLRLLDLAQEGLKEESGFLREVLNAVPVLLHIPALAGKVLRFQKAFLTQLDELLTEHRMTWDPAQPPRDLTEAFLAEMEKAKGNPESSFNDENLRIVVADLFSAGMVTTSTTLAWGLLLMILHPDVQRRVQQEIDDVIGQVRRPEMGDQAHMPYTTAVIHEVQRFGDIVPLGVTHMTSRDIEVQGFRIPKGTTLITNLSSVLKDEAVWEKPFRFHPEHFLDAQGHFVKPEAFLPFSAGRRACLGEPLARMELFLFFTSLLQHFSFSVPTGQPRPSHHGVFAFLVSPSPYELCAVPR

[6] = Solubility of the compound; assay type: physicochemical
[7] = Tlast in mouse at 20 mg/kg, po; assay type: ADME, organism-based; details: in vivo
[8] = Half life in mouse at 3 mg/kg, iv; assay type: ADME, organism-based; details: in vivo
[9] = target: Toll-like receptor 7 (Mus musculus) (UniProt P58681); assay: In vivo antagonist activity against TLR7 in po dosed mouse assessed as suppression of TNF level measured at 3 hrs by LC-MS/MS analysis; details: dose 1-30 mg/kg
[10] = target: T1, Toll-like receptor 4 (Mus musculus, UniProt Q9QUK6); assay: Antagonist activity at TLR4 in mouse Splenocyte assessed as reduction IL-6 level measured after 20 hrs by Spectramax M5 method; assay type: cell-based
T1 sequence (Q9QUK6 whole entry): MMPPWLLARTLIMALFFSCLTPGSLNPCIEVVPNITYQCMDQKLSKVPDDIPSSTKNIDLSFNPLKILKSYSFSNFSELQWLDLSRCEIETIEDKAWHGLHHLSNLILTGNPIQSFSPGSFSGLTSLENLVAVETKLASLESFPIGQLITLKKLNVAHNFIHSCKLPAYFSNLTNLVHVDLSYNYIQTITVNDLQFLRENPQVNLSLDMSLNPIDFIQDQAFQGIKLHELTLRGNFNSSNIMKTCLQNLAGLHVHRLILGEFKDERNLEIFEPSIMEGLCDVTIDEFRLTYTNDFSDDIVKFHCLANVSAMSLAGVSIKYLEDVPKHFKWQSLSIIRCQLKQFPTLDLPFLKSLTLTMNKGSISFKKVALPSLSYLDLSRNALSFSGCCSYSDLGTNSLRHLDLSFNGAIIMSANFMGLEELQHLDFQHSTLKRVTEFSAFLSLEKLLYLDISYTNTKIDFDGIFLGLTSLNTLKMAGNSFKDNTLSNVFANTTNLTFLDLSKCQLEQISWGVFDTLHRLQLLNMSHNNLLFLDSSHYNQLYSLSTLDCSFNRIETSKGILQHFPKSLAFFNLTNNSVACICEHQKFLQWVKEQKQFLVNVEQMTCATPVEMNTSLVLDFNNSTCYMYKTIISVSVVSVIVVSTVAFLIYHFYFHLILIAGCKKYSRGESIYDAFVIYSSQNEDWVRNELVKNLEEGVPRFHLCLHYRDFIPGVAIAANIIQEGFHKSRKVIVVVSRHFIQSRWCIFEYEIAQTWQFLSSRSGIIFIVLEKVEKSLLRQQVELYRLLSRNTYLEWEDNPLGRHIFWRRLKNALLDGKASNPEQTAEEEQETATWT

[11] = target: Toll-like receptor 7 (Mus musculus) (UniProt P58681); assay: In vivo antagonist activity against TLR7 in mouse assessed as inhibition of TNF level at 10 mg/kg, po measured after 2 hrs by LC-MS/MS analysis relative to control
[12] = target: T1, Toll-like receptor 4; assay: Antagonist activity at TLR4 in mouse Whole blood cell assessed as reduction in IL-6 level measured after 20 hrs by HTRF method; assay type: tissue-based
[13] = target: Toll-like receptor 7 (Mus musculus) (UniProt P58681); assay: In vivo antagonist activity against TLR7 in mouse assessed as suppression of IFN alpha level at 10 mg/kg, po measured at 3 hrs by LC-MS/MS analysis
[14] = target: Toll-like receptor 7 (Mus musculus) (UniProt P58681); assay: In vivo antagonist activity against TLR7 in po dosed mouse assessed as suppression of IL-6 level measured at 3 hrs by LC-MS/MS analysis; details: dose 1-30 mg/kg
[15] = target: Toll-like receptor 7 (Mus musculus) (UniProt P58681); assay: In vivo antagonist activity against TLR7 in mouse assessed as suppression of IFN alpha level at 30 mg/kg, po measured at 3 hrs by LC-MS/MS analysis
[16] = target: Toll-like receptor 7 (Mus musculus) (UniProt P58681); assay: In vivo antagonist activity against TLR7 in mouse assessed as inhibition of IFN alpha level at 10 mg/kg, po measured after 2 hrs by LC-MS/MS analysis relative to control
[17] = target: T2, Toll-like receptor 7 (Homo sapiens, UniProt Q9NYK1); assay: Antagonist activity at TLR7 in human Whole blood cell assessed as reduction in IFN-alpha level measured after 30 mins; assay type: tissue-based
T2 sequence (Q9NYK1 whole entry): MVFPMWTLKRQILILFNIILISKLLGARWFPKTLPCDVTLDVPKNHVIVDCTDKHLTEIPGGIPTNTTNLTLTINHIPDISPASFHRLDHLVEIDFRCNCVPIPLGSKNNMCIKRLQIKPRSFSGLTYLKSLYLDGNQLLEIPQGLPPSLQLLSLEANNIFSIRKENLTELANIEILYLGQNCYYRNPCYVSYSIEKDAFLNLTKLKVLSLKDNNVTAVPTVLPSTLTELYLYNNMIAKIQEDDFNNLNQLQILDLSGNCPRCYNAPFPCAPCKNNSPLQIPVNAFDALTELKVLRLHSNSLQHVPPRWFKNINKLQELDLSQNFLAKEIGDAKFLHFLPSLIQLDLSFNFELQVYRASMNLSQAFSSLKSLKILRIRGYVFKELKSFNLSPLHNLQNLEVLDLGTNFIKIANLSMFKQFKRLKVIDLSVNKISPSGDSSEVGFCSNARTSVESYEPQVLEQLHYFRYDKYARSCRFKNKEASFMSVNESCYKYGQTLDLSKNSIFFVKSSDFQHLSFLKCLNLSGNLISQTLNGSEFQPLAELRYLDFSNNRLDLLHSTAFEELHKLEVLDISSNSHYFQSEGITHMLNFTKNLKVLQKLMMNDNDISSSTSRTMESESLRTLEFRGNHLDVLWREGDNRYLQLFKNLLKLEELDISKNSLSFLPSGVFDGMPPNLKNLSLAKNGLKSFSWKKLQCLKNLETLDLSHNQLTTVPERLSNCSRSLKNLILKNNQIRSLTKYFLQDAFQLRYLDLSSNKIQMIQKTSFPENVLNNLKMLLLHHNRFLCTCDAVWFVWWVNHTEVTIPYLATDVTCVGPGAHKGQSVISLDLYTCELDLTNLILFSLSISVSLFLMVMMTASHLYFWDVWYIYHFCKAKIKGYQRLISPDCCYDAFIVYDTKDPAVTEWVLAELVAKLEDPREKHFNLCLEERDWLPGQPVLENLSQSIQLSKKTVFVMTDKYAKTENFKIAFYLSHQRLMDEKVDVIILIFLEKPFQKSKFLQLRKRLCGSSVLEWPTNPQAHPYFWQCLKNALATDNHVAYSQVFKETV

| SMILES | clearance [1] [mL/min/kg] | MRT [2] [h] | Cmax [3] [nM] | AUC [4] [µM·h] | IC50 [5] [µM] | solubility [6] [µM] | Tlast [7] [h] | t1/2 [8] [h] | Activity [9] | IC50 [10] [µM] | inhibition in vivo at 10 mg/kg [11] [%] | IC50 [12] [µM] | Activity [13] [ng/mL] | Activity [14] | Activity [15] [ng/mL] | inhibition in vivo at 10 mg/kg [16] [%] | IC50 [17] [µM] |
| --- | --- | --- | --- | --- | --- | --- | --- | --- | --- | --- | --- | --- | --- | --- | --- | --- | --- |
| Cc1cc(N2CCc3c(c(C)nn3CC34CCC(N)(CC3)CC4)C2)c2cnn(C)c2n1 | 24 | 2.9 | 321 | 5.005 | > 25 | > 175 | 7 | 2.1 |  |  |  |  |  |  |  |  |  |
| Cc1cc(N2CCc3c(c(C)nn3CC34CCC(NC(=O)[C@@H]5COCCN5)(CC3)CC4)C2)c2cnn(C)c2n1 [MHV-370] |  |  |  |  |  |  |  |  | Dose-Dependent Effect | > 10 | ~100 | > 10 | 550 | Dose-Dependent Effect | 1347 | ~100 | 0.007 |
